In brackets after ≈: the same amount, converted by molar mass. Activity calls are given as the source filed them. The rule behind the calls is not given here.
Experiments:
[1] = (§1) Selectivity index, ratio of CC50 for African green monkey Vero cells to IC50 for Brugia malayi adult worm; format: functional
Brugia malayi [2] = test: Antifilarial activity against Brugia malayi adult worm assessed as reduction in motility at 2.5 uM after 5 days by MTT dye reduction assay; format: functional; conditions: 120 h
Brugia malayi [3] = test: Antifilarial activity against Brugia malayi adult worm infected in jird model assessed as sterile female at 100 mg/kg, sc after 5 days measured till day 45 relative to control; format: functional; conditions: route subcutaneous
Brugia malayi [4] = test: Antifilarial activity against Brugia malayi adult worm assessed as reduction in motility at 5 uM after 5 days by MTT dye reduction assay; format: functional; conditions: 120 h
Brugia malayi [5] = test: Antifilarial activity against Brugia malayi microfilariae infected in jird model assessed as microfilaricidal activity at 100 mg/kg, sc after 5 days measured till day 45 relative to control; format: functional; conditions: route subcutaneous
Brugia malayi [6] = test: Antifilarial activity against Brugia malayi microfilaria assessed as reduction in motility at 0.625 uM after 5 days by MTT dye reduction assay; format: functional; conditions: 120 h
Brugia malayi [7] = test: Antifilarial activity against Brugia malayi adult worm assessed as reduction in motility after 5 days by MTT dye reduction assay; format: functional, organism-based
Brugia malayi [8] = test: Antifilarial activity against Brugia malayi microfilaria assessed as reduction in motility at 5 uM after 5 days by MTT dye reduction assay; format: functional; conditions: 120 h
Brugia malayi [9] = test: Antifilarial activity against Brugia malayi microfilaria assessed as reduction in motility after 5 days by MTT dye reduction assay; format: functional, organism-based
[10] = (§2) Cytotoxicity against African green monkey Vero cells after 72 hrs by resazurin dye-based fluorescence assay; format: cell-based; conditions: chlorocebus sabaeus, Vero cells
Brugia malayi [11] = test: Antifilarial activity against Brugia malayi adult worm assessed as reduction in motility at 0.312 uM after 5 days by MTT dye reduction assay; format: functional; conditions: 120 h
Brugia malayi [12] = test: Antifilarial activity against Brugia malayi adult worm infected in jird model assessed as adulticidal activity at 100 mg/kg, sc after 5 days measured till day 45 relative to control; format: functional; conditions: route subcutaneous
Brugia malayi [13] = test: Antifilarial activity against Brugia malayi microfilaria assessed as reduction in motility at 1.25 uM after 5 days by MTT dye reduction assay; format: functional; conditions: 120 h
Brugia malayi [14] = test: Antifilarial activity against Brugia malayi adult worm assessed as reduction in motility at 0.625 uM after 5 days by MTT dye reduction assay; format: functional; conditions: 120 h
Brugia malayi [15] = test: Antifilarial activity against Brugia malayi adult worm assessed as reduction in motility at 1.25 uM after 5 days by MTT dye reduction assay; format: functional; conditions: 120 h
[16] = (§3) Selectivity index, ratio of CC50 for African green monkey Vero cells to IC50 for Brugia malayi microfilaria; format: functional
Brugia malayi [17] = test: Antifilarial activity against Brugia malayi microfilaria assessed as reduction in motility at 2.5 uM after 5 days by MTT dye reduction assay; format: functional; conditions: 120 h
Brugia malayi [18] = test: Antifilarial activity against Brugia malayi microfilaria assessed as reduction in motility at 0.312 uM after 5 days by MTT dye reduction assay; format: functional; conditions: 120 h
Brugia malayi [19] = test: Antifilarial activity against Brugia malayi microfilaria assessed as reduction in motility at 0.19 uM after 5 days by MTT dye reduction assay; format: functional; conditions: 120 h
Brugia malayi [20] = test: Antifilarial activity against Brugia malayi adult worm assessed as reduction in motility at 0.19 uM after 5 days by MTT dye reduction assay; format: functional; conditions: 120 h
Brugia malayi [21] = test: Antifilarial activity against Brugia malayi microfilaria assessed as reduction in motility at 10 uM after 5 days by MTT dye reduction assay; format: functional, organism-based
Brugia malayi [22] = test: Antifilarial activity against Brugia malayi adult worm assessed as reduction in motility at 10 uM after 5 days by MTT dye reduction assay; format: functional, organism-based
Vero [23] = test: as §2; format: cell-based; conditions: chlorocebus sabaeus, vero, 72 h
Brugia malayi [24] = test: Antifilarial activity against Brugia malayi microfilaria assessed as reduction in motility at 1.12 uM after 5 days by MTT dye reduction assay; format: functional, organism-based
Brugia malayi [25] = test: Antifilarial activity against Brugia malayi microfilaria assessed as reduction in motility at 4.45 uM after 5 days by MTT dye reduction assay; format: functional, organism-based
Vero [26] = test: as §1; format: functional
Brugia malayi [27] = test: Antifilarial activity against Brugia malayi microfilaria assessed as reduction in motility at 2.17 uM after 5 days by MTT dye reduction assay; format: functional, organism-based
Brugia malayi [28] = test: Antifilarial activity against Brugia malayi microfilaria assessed as reduction in motility at 8.9 uM after 5 days by MTT dye reduction assay; format: functional, organism-based
Brugia malayi [29] = test: Antifilarial activity against Brugia malayi adult worm assessed as reduction in motility at 8.9 uM after 5 days by MTT dye reduction assay; format: functional, organism-based
Brugia malayi [30] = test: Antifilarial activity against Brugia malayi adult worm assessed as reduction in motility at 4.45 uM after 5 days by MTT dye reduction assay; format: functional, organism-based
Vero [31] = test: as §3; format: functional
Brugia malayi [32] = test: Antifilarial activity against Brugia malayi adult worm assessed as reduction in motility at 2.17 uM after 5 days by MTT dye reduction assay; format: functional, organism-based
Brugia malayi [33] = test: Antifilarial activity against Brugia malayi adult worm assessed as reduction in motility at 1.12 uM after 5 days by MTT dye reduction assay; format: functional, organism-based

Row | MIC (Brugia malayi [7]; Brugia malayi, 120 h) | MIC (Brugia malayi [9]; Brugia malayi, 120 h) | MIC (Brugia malayi [7]) | MIC (Brugia malayi [9]) | Compound | Ratio CC50/IC50 [1] | inhibition at 2.5 µM (Brugia malayi [2]) | inhibition at 5 µM (Brugia malayi [4]) | inhibition at 0.625 µM (Brugia malayi [6]) | IC50 (Brugia malayi [7]; Brugia malayi, 120 h) | inhibition at 5 µM (Brugia malayi [8]) | IC50 (Brugia malayi [9]; Brugia malayi, 120 h) | CC50 at 72 h [10] | inhibition at 0.312 µM (Brugia malayi [11]) | inhibition at 1.25 µM (Brugia malayi [13]) | inhibition at 0.625 µM (Brugia malayi [14]) | inhibition at 1.25 µM (Brugia malayi [15]) | Ratio CC50/IC50 [16] | inhibition at 2.5 µM (Brugia malayi [17]) | inhibition at 0.312 µM (Brugia malayi [18]) | other results
1 | 5 µM (≈ 1.63 µg/mL) | 2.5 µM (≈ 0.813 µg/mL) |  |  | Cc1ccc(NCC(O)COc2cc(=O)oc3ccccc23)cc1 (configuration not stated) | >72.4 | 38.6% | 78.9% | 75% | 1.38 µM | 100% | 0.18 µM | > 100 µM | 9.6% | 75% | 8.9% | 12.8% | >555.5 | 75% | 75% | Activity (Brugia malayi [3]): 0%; Activity (Brugia malayi [5]): 31.7%; Activity (Brugia malayi [12]): 24.8%
2 | 2.5 µM (≈ 0.728 µg/mL) | 2.5 µM (≈ 0.728 µg/mL) |  |  | CCCCNCC(O)COc1cc(=O)oc2ccccc12 (configuration not stated) | >144.9 | 84.9% |  | 50% | 0.69 µM |  | 0.43 µM | > 100 µM | 46.9% | 75% | 48.9% | 52.4% | >232.5 | 100% | 1% | inhibition at 0.19 µM (Brugia malayi [19]): 1%; inhibition at 0.19 µM (Brugia malayi [20]): 8.9%
3 | 2.5 µM (≈ 0.793 µg/mL) | 2.5 µM (≈ 0.793 µg/mL) |  |  | O=c1cc(OCC(O)CNC2CCCCC2)c2ccccc2o1 (configuration not stated) | >277.7 | 92% |  | 50% | 0.36 µM |  | 0.26 µM | > 100 µM | 16.2% | 100% | 24.2% | 47% | >384.6 | 100% | 50% | Activity (Brugia malayi [3]): 0%; Activity (Brugia malayi [5]): 31.8%; Activity (Brugia malayi [12]): 66.6%
4 |  |  | inactive | inactive | O=c1cc(OCC(O)CN2CCOCC2)c2ccccc2o1 (configuration not stated) |  |  | 20.1% |  |  | 1% |  |  |  |  |  |  |  |  |  | Activity (Brugia malayi [21]): inactive; Activity (Brugia malayi [22]): inactive
5 |  |  | inactive | inactive | O=C(O)CCCNCC(O)COc1cc(=O)oc2ccccc12 (configuration not stated) |  |  | 17.5% |  |  | 1% |  |  |  |  |  |  |  |  |  | Activity (Brugia malayi [21]): inactive; Activity (Brugia malayi [22]): inactive
6 |  |  |  |  | IVERMECTIN [listing 1 of 2 here] |  |  |  |  |  |  |  |  |  |  |  |  |  |  |  | IC50 (Brugia malayi [7]): 1.8 µM; IC50 (Brugia malayi [9]): 4 µM; CC50 (Vero [23]): 53.1 µM
7 |  |  | 8.9 µM | 10 µM | IVERMECTIN [listing 2 of 2 here] |  |  |  |  |  |  |  |  |  |  |  |  |  |  |  | inhibition (Brugia malayi [24]): 50%; inhibition (Brugia malayi [25]): 1%; Ratio CC50/IC50 (Vero [26]): 29.5; inhibition (Brugia malayi [27]): 1%; inhibition (Brugia malayi [28]): 0%; inhibition (Brugia malayi [29]): 61.2%; inhibition (Brugia malayi [30]): 35.3%; Ratio CC50/IC50 (Vero [31]): 13.3; inhibition (Brugia malayi [32]): 21.6%; inhibition (Brugia malayi [33]): 17.7%

Source: ChEMBL document CHEMBL3414470, “Synthesis and biological evaluation of 4-oxycoumarin derivatives as a new class of antifilarial agents” (Eur J Med Chem, 2015)
